Tests used:
[1] = Thermogravimetric analysis (TGA) of polymers and nanoparticle systems; assay type: physicochemical
Method: The thermogravimetric analysis (TGA) was carried out under N2 atmosphere in TGA Q500 (TA) equipment between 25 and 600° C. with a heating rate of 10° C./min.
The products were characterized by ATR-FTIR (4000 to 600 cm−1), TGA (25 to 600° C. under nitrogen atmosphere at 10° C./min) and DSC (the scan was carried out at a constant rate of 10° C./min, with a N2 flow of 20 ml/min, with temperatures in the range of −20 to 180° C.) to determine the glass transition temperature of the NP. For the calculation of the Tg, the temperature at which half of the difference in specific heat between the vitreous amorphous and elastomer amorphous states is reached is taken, that is, Tg=½ ΔCp. This point corresponds to the inflection point of the change in slope in the thermogram of the second scan.

[2] = donated by ROVI pharmaceutical laboratories; cited from earlier work
[3] = test system: BaF32 cells; assay: BaF32 proliferation assay; assay type: cell-based
Method: The measurements of biological activity of the free and encapsulated bemiparin were carried out by cell proliferation assay. For this, BaF32 cells were used, which are a type of lymphocyte B, the cell signalling of which is mediated by the formation of a complex between the bemiparin, the FGF-2 and its corresponding FGFR1c receptor on the cell surface.
Bemiparin forms a ternary complex (FIG. 27) with the fibroblast growth factor (FGF-2) and its corresponding specific membrane receptor (FGFR1c) thus increasing the cellular signalling process corresponding to the proliferation process (Dillen, K., J. Vandervoort, G. Van den Mooter, and A. Ludwig. 2006. Evaluation of ciprofloxacin-loaded Eudragit® RS100 or RL100/PLGA nanoparticles. International Journal of Pharmaceutics 314 (1): 72-82; Eto, T. 2001. A review of the biological properties and clinical implications of adrenomedullin and proadrenomedullin N-terminal 20 peptide (PAMP), hypotensive and vasodilating peptides. Peptides 22 (11): 1693-1711). Given this property, an experiment was designed to verify that the encapsulated bemiparin maintains its biological activity. For this BaF32 cells were used, which are a type of lymphocyte B, the cell signalling of which is modulated by a by a specific bond between the FGF-2 and its corresponding FGFR1c receptor on the cell surface.

## bemiparin
[1]
  T10% (temperature at which 10% of the system has been degraded): 120 °C
[2]
  activity of bemiparin as supplied: 111.3 IU/mg
[3]; FGF-2, FGFR1c
  effect on cell proliferation / activity of the FGF-2: promoting cell proliferation
[3]; different concentrations of bemiparin
  dependence of the cellular response on the concentration of bemiparin: independent from the concentration of bemiparin used

— patent US20160074553A1, “DRESSING FOR COMPROMISED WOUND HEALING” (CONSEJO SUPERIOR DE INVESTIGACIONES CIENTIFICAS (CSIC), priority 2012, published 2016)
